Data set [1] relates to HCV replicon cells Huh 9B. Format: cell-based. As to the method: (§1) HCV replicon cells Huh 9B (ReBlikon), containing the firefly luciferase-ubiquitin-neomycin phosphotransferase fusion protein and EMCV-IRES driven HCV polyprotein with cell culture adaptive mutations.
A flask of cells was trypsinised and a cell count carried out. […] Wells G12 and H12 were left empty in the clear plate as the blank. Plates were then incubated at 37° C. in a 5% CO2 environment for 24 h.
(§2) On the following day compound dilutions are made up in medium at twice their desired final concentration in a clear round bottomed plate. All dilutions have a final DMSO concentration of 1%.
Exception: no compound was added to wells A1 and A2 of either plate and 100 μl of 1% DMSO was added to these instead. Plates were then incubated at 37° C. with 5% CO2 for 72 h.
The clear plate was stained with 100 μl 0.5% methylene blue in 50% ethanol at room temperature for 1 h, followed by solvation of the absorbed methylene blue in 100 μl per well of 1% lauroylsarcosine. Absorbance of the plate was measured on a microplate spectrophotometer (Molecular Devices) and the absorbance for each concentration of compound expressed as a proportion of the relative DMSO control.

The subject of data set [2] is HCV replicon cells Huh 9B. Kind of data set: HCV replicon assay (luciferase readout). Format: cell-based. As to the method: as §1
Cells were cultured at 37° C. in a 5% CO2 environment and split twice a week on seeding at 2×10^6 cells/flask on day 1 and 1×10^6 3 days later. G418 at 0.5 mg/ml was added to the culture medium but not the assay medium.
The culture medium consisted of DMEM with […] glucose and glutamax (Gibco 61965-026) supplemented with 1× non-essential amino acids (Invitrogen 11140-035), penicillin (100 IU/ml)/streptomycin (100 μg/ml) (Invitrogen 15140-122), FCS (10%, 50 ml) and 1 mg/ml G418 (Invitrogen 10131-027) & 10% Australian foetal calf serum (Invitrogen 10099-141).
A flask of cells was trypsinised and a cell count carried out. Cells were diluted to 100,000 cells/ml and 100 μl of this used to seed one opaque white 96-well plate (for the replicon assay) and one flat-bottomed clear plate (for the tox assay) for every seven compounds to be tested for IC50. Wells G12 and H12 were left empty in the clear plate as the blank. Plates were then incubated at 37° C. in a 5% CO2 environment for 24 h.
as §2
Once the dilution plate had been made up, controls and compounds were transferred to the assay plate (containing the cells) at 100 μl /well in duplicate plates. Exception: no compound was added to wells A1 and A2 of either plate and 100 μl of 1% DMSO was added to these instead. Plates were then incubated at 37° C. with 5% CO2 for 72 h.
At the end of the incubation time, the cells in the white plate were harvested by washing 23.5 mM beetle luciferin (Promega E1603), 26 mM ATP (Sigma 0-2060) in […] Tris buffer pH 7.8 aliquoted and stored at −80 C was thawed and diluted 1:50 in luciferase assay buffer (20 mM Tricine (Sigma T-0377), 1.07 mM magnesium carbonate hydroxide (Sigma M-5671), 0.1 mM EDTA (Sigma E-5134), 2.67 mM MgSO4 (BDH 101514Y), 33.3 mM dithiothreitol (Sigma 150460) pH 7.8).
The M injector of the microplate luminometer (Lmax, Molecular Devices) was primed with 5×300 μl injections of the diluted substrate. After 5-60 min incubation in lysis buffer at room temperature, a plate was inserted into the luminometer and 100 μl luciferase assay reagent was added by the injector on the luminometer. The signal was measured using a 1 second delay followed by a 4 second measurement programme.
In general terms: A replicon is a self-replicating genome or part of one, used to study replication in cells.

Setting [3] is: concentration reducing total cell area by 50% relative to DMSO controls, methylene blue, absorbance 620 nm, 72 h incubation.
[4] abbreviates: Hepatitis C virus, 72 h, concentration reducing replicon level (luciferase activity) by 50% vs untreated cell control, 72 h incubation.

Molecules are shown by their SMILES. pIC50: −log10 of the molar value. Like-named read-outs stand apart in the source and are kept apart here.

A word on the pIC50: it is the IC50 on a negative log10 scale, so that one unit is a factor of ten. Low values mean a large IC50, high ones a small IC50. `Cc1ccc(NC(=O)c2ccc(CN3CCS(=O)(=O)CC3)cc2)cc1-c1ccc(C(=O)Nc2ccc(CN3CCS(=O)(=O)CC3)cc2)cc1` [Example 161, 5′-[4-(1,1-Dioxo-1lambda*6*-thiomorpholin-4-ylmethyl)-benzoylamino]-2′-methyl-biphenyl-4-carboxylic acid [4-(1,1-dioxo-1lambda*6*-thiomorpholin-4-ylmethyl)-phenyl]-amide]: in data set [1] (setting [3]), the TD50 entry is “* (* < 50 μM)”. The compound also had a pIC50 in data set [2] (setting [4]) of 5.30 to 6.00.

As for `Cc1ccc(C(=O)Nc2ccc(N3CCOCC3)cc2)cc1-c1ccc(C(=O)NCc2ccc(N3CCOCC3)cc2)cc1` [Example 20, 6-Methyl-biphenyl-3,4′-dicarboxylic acid 4′-(4-morpholin-4-yl-benzylamide) 3-[(4-morpholin-4-yl-phenyl)-amide]], in data set [1], the TD50 entry is recorded as “** (key: * < 50 μM; ** > 50 μM)”. Moreover, the pIC50 in data set [2] is under 5.30.

For the compound `Cc1cc(C(=O)Nc2ccc(N3CCOCC3)cc2)ccc1-c1cccc(C(=O)Nc2ccc(-c3ccno3)cc2)c1` [Example 65, 2′-Methyl-biphenyl-3,4′-dicarboxylic acid 3-[(4-isoxazol-5-yl-phenyl)-amide] 4′-[(4-morpholin-4-yl-phenyl)-amide]], the TD50 result in data set [1] is given as “* (key: * < 50 μM; ** > 50 μM)”. In data set [2], the pIC50 is over 6.00.

`Cc1ccc(NC(=O)C2CCCCC2)cc1-c1ccc(NC(=O)c2ccc(CN3CCS(=O)(=O)CC3)cc2)cc1` [Example 150, N-[5′-(Cyclohexanecarbonyl-amino)-2′-methyl-biphenyl-4-yl]-4-(1,1-dioxo-1lambda*6*-thiomorpholin-4-ylmethyl)-benzamide]: the TD50 entry in data set [1] (setting [3]) is reported as “* (* < 50 μM)”. In data set [2] (setting [4]), this compound gave a pIC50 of over 6.00.

Consider `CN1CCN(C(=O)Nc2ccc(OC(F)(F)F)c(-c3ccc(C(=O)Nc4ccc(CN5CCN(S(C)(=O)=O)CC5)cc4)cc3)c2)CC1` [Example 239, 4-Methyl-piperazine-1-carboxylic acid {4′-[4-(4-methanesulfonyl-piperazin-1-ylmethyl)-phenylcarbamoyl]-6-trifluoromethoxy-biphenyl-3-yl}-amide], for which the TD50 entry in data set [1] (setting [3]) was “* (* < 50 μM)”. Besides, the pIC50 in data set [2] (setting [4]) is over 6.00.

`Cc1ccc(NC(=O)c2cccs2)cc1-c1ccc(C(=O)Nc2ccc3cn[nH]c3c2)cc1` [Example 213, Thiophene-2-carboxylic acid [4′-(1H-indazol-6-ylcarbamoyl)-6-methyl-biphenyl-3-yl]-amide]: in data set [1] (setting [3]), the TD50 entry is reported as “* (* < 50 μM)”. This compound had a pIC50 in data set [2] (setting [4]) of 5.30 to 6.00.

For the compound `Cc1ccc(C(=O)Nc2ccc(N3CCOCC3)cc2)cc1-c1ccc(CNc2ccc3cn[nH]c3c2)cc1` [Example 97, 4′-[(1H-Indazol-6-ylamino)-methyl]-6-methyl-biphenyl-3-carboxylic acid (4-morpholin-4-yl-phenyl)-amide], in data set [1] (setting [3]), the TD50 entry is on record as “** (** > 50 μM)”. This compound showed a pIC50 in data set [2] (setting [4]) of 5.30 to 6.00.

For `CCC1(c2ccc(NC(=O)c3ccc(C)c(-c4ccc(C(=O)Nc5ccc(CN6CCS(=O)(=O)CC6)cc5)cc4)c3)cc2)CCC(=O)NC1=O` (centres unmarked) [Example 138, 6-Methyl-biphenyl-3,4′-dicarboxylic acid 4′-{[4-(1,1-dioxo-1lambda*6*-thiomorpholin-4-ylmethyl)-phenyl]-amide} 3-{[4-(3-ethyl-2,6-dioxo-piperidin-3-yl)-phenyl]-amide}], the TD50 result in data set [1] was “* (key: * < 50 μM; ** > 50 μM)”. For the same compound, the pIC50 in data set [2] is over 6.00.

As to `Cc1ccc(-c2noc(C(C)C)n2)cc1-c1ccc(C(=O)Nc2ccc(CN3CCS(=O)(=O)CC3)cc2)cc1` [Example 207, 5′-(5-Isopropyl-[1,2,4]oxadiazol-3-yl)-2′-methyl-biphenyl-4-carboxylic acid [4-(1,1-dioxo-1lambda*6*-thiomorpholin-4-ylmethyl)-phenyl]-amide], the TD50 entry in data set [1] (setting [3]) was “* (* < 50 μM)”. In data set [2] (setting [4]), this compound showed a pIC50 of under 5.30.

As to `Cc1ccc(C(=O)Nc2ccc(N3CCOCC3)cc2)cc1-c1ccc(C(=O)Nc2ccc(CN3CCCC3)cc2)cc1` [Example 75, 6-Methyl-biphenyl-3,4′-dicarboxylic acid 3-[(4-morpholin-4-yl-phenyl)-amide] 4′-[(4-pyrrolidin-1-ylmethyl-phenyl)-amide]], in data set [1], the TD50 result was “* (key: * < 50 μM; ** > 50 μM)”. This compound showed a pIC50 in data set [2] of under 5.30.

For `Cc1ccc(C(=O)NC2CCCC2)cc1-c1ccc(C(=O)Nc2ccc(CN3CCS(=O)(=O)CC3)cc2)cc1` [Example 148, 6-Methyl-biphenyl-3,4′-dicarboxylic acid 3-cyclopentylamide 4′-{[4-(1,1-dioxo-1lambda*6*-thiomorpholin-4-ylmethyl)-phenyl]-amide}], in data set [1], the TD50 entry is on record as “* (key: * < 50 μM; ** > 50 μM)”. The compound also had a pIC50 in data set [2] of 5.30 to 6.00.

Regarding `CNS(=O)(=O)Cc1ccc(NC(=O)c2ccc(-c3cc(C(=O)Nc4ccc(N5CCOCC5)cc4)ccc3C)cc2)cc1` [Example 54, 6-Methyl-biphenyl-3,4′-dicarboxylic acid 4′-[(4-methylsulfamoylmethyl-phenyl)-amide] 3-[(4-morpholin-4-yl-phenyl)-amide]], in data set [1], the TD50 entry is “** (key: * < 50 μM; ** > 50 μM)”. The pIC50 in data set [2] is 5.30 to 6.00.

With `Cc1ccc(CNC(CO)Cc2cnc[nH]2)cc1-c1ccc(C(=O)Nc2ccc(N3CCOCC3)cc2)cc1` (centres unmarked) [Example 95, 5′-{[1-Hydroxymethyl-2-(3H-imidazol-4-yl)-ethylamino]-methyl}-2′-methyl-biphenyl-4-carboxylic acid (4-morpholin-4-yl-phenyl)-amide], the TD50 entry in data set [1] (setting [3]) is given as “* (* < 50 μM)”. In addition, the pIC50 in data set [2] (setting [4]) is 5.30 to 6.00.

Take `CC(=O)Nc1cccc(NC(=O)c2ccc(-c3cc(C(=O)Nc4ccc(N5CCOCC5)cc4)ccc3C)cc2)c1` [Example 72, 6-Methyl-biphenyl-3,4′-dicarboxylic acid 4′-[(3-acetylamino-phenyl)-amide] 3-[(4-morpholin-4-yl-phenyl)-amide]]: the TD50 result in data set [1] is “* (key: * < 50 μM; ** > 50 μM)”. Also, in data set [2], the negative logarithm of the IC50 (pIC50) was 5.30 to 6.00.

With `Cc1ccc(C(=O)Nc2ccc(N3CCOCC3)cc2)cc1-c1ccc(C(=O)Nc2cccc3cc[nH]c23)cc1` [Example 48, 6-Methyl-biphenyl-3,4′-dicarboxylic acid 4′-[(1H-indol-7-yl)-amide] 3-[(4-morpholin-4-yl-phenyl)-amide]], the TD50 entry in data set [1] is recorded as “** (key: * < 50 μM; ** > 50 μM)”. The pIC50 in data set [2] was 5.30 to 6.00.

With `Cc1ccc(-c2ccc(C(=O)Nc3ccc(CN4CCS(=O)(=O)CC4)cc3)cc2C)cc1NC(=O)C1CC1` [Example 172, 3′-(Cyclopropanecarbonyl-amino)-2,4′-dimethyl-biphenyl-4-carboxylic acid [4-(1,1-dioxo-1lambda*6*-thiomorpholin-4-ylmethyl)-phenyl]-amide], the TD50 result in data set [1] (setting [3]) is listed as “* (* < 50 μM)”. This compound also gave a negative-log IC50 (pIC50) in data set [2] (setting [4]) of 5.30 to 6.00.

Regarding `Cc1cccc(CNC(=O)c2ccc(-c3cc(NC(=O)c4cn[nH]c4)ccc3C)cc2)c1` [Example 214, 1H-Pyrazole-4-carboxylic acid [6-methyl-4′-(3-methyl-benzylcarbamoyl)-biphenyl-3-yl]-amide], the TD50 entry in data set [1] (setting [3]) was “* (* < 50 μM)”. In addition, in data set [2] (setting [4]), the pIC50 was under 5.30.

For `CC(=O)Nc1cc(NC(=O)c2ccc(-c3cc(C(=O)Nc4ccc(N5CCOCC5)cc4)ccc3C)cc2)ccc1C` [Example 77, 6-Methyl-biphenyl-3,4′-dicarboxylic acid 4′-[(3-acetylamino-4-methyl-phenyl)-amide] 3-[(4-morpholin-4-yl-phenyl)-amide]], in data set [1], the TD50 result is “* (key: * < 50 μM; ** > 50 μM)”. Moreover, the pIC50 in data set [2] is 5.30 to 6.00.

Turning to `Cc1ccc(C(=O)Nc2ccc(N3CCOCC3)cc2)cc1-c1ccc(C(=O)Nc2cccnc2)cc1` [Example 36, 6-Methyl-biphenyl-3,4′-dicarboxylic acid 3-[(4-morpholin-4-yl-phenyl)-amide] 4′-pyridin-3-ylamide], the TD50 result in data set [1] is “* (key: * < 50 μM; ** > 50 μM)”. In data set [2], this compound showed a pIC50 of 5.30 to 6.00.

These data come from patent US8008303B2, “Biphenyl derivatives and their use in treating hepatitis C” (AstraZeneca AB, priority 2005, dated 2011).
